Drawing on ChEMBL document CHEMBL4411344, “Synthesis and biological evaluation of new long-chain squaramides as anti-chagasic agents in the BALB/c mouse model” (Bioorg Med Chem, 2019), this text covers Activity for one molecule.

The experiment concerns Trypanosoma cruzi. Kind of experiment: Antitrypanosomal activity against Trypanosoma cruzi MHOM/Pe/2011/Arequipa DTU 5 epimastigotes assessed as effect on parasite glycolytic pathway by measuring increase in L-alanine excretion at IC25 after 72 hrs by 1H NMR method. In kind it is functional, organism-based.

Structures are written as SMILES. Active and inactive are the calls of the source. No cut-off for these calls is given here.

Take `CCCCCCCCCCCCCCCCNc1c(N(C)CCCN(C)C)c(=O)c1=O`: the result was Active.
